In patent US10703735B2, “4-phenyl-coumarin derivatives, processes for their preparation and uses thereof for the treatment of cancer” (Lead Discovery Center GmbH, priority 2018, dated 2020):

Legend:
[1] = target: mitochondrial RNA-polymerase (POLRMT) (Mus musculus, UniProt Q8BKF1); assay: Homogeneous TR-FRET assay for mitochondrial transcription activity; format: biochemical; details: homogeneous TR-FRET assay according to Example 4; read-out: mitochondrial transcription activity (IC-50)
Procedure, shortened: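 Mouse POLRMT with TFAM and TFB2M transcribes linearized pUC-LSP template after 10 min compound preincubation (10 μM final or dilution series), started with 500 μM each nucleotide, 2 h at RT. EDTA/high-salt stop; RNA product detected by hybridized Eu/ATTO647N probe pair, TR-FRET read at 665 nm (340 nm excitation).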

[2] = system: mitochondrial transcription (7S RNA) in HeLa cells; assay: Quantitative real time-PCR assay of inhibition of mitochondrial transcription (7S RNA) in HeLa cells; format: cell-based; details: Homo sapiens, 4 h incubation, Example 5, read-out: cellular qPCR assay IMT (IC-50)
Experimental: Quantitative real-time PCR (qRT-PCR), based on the TaqMan™ (Thermo Fisher Scientific, Waltham Mass.) technology, was carried out essentially as described in (Heid et al. 1996). HeLa cells were plated one day before compound treatment in RPMI medium supplemented with 10% Fetal Calf Serum and 2 mM L-glutamine. Cells were incubated with dilution series of compounds or vehicle (DMSO) for 4 h, prior to harvest and extraction of the RNA using the RNeasy Mini Kit (Qiagen, Hilden D), according to the manufacturer's instructions. RNA concentrations were measured spectroscopically, using a NanoDrop-2000 (Thermo Fisher Scientific, Waltham Mass.) and normalized prior to cDNA synthesis, using a ‘High-Capacity cDNA Reverse Transcription Kit’ (Thermo Fisher Scientific, Waltham Mass.). qRT-PCR was carried out using the ‘TaqMan Fast Advance Master Mix’ (Thermo Fisher Scientific, Waltham Mass.) on a 7500 Fast Real-Time PCR machine (Applied Biosystems, Foster City Calif.)
For these measurements, three genes were used to compare the effect of the scrutinized compounds in relation to their concentration. The POLRMT-gene was used to detect potential influences on nuclear transcription. Mitochondrial transcription in vivo was monitored by measurements 7S RNA. The TBP (TATA-box binding protein) gene was employed as the control (housekeeping gene) during qRT-PCR. The short-lived mitochondrial 7S RNA, which is not post-transcriptionally stabilized, allowed us to monitor rapid changes in mitochondrial transcription activity following compound addition. Biological triplicates were analyzed using the comparative CT Method (ΔΔCt) method (Bubner et al. 2004) and reported as Rq % values (Rq=Relative quantification=2-ΔΔCt).

Sequence of mitochondrial RNA-polymerase (POLRMT) (Q8BKF1 42-1207): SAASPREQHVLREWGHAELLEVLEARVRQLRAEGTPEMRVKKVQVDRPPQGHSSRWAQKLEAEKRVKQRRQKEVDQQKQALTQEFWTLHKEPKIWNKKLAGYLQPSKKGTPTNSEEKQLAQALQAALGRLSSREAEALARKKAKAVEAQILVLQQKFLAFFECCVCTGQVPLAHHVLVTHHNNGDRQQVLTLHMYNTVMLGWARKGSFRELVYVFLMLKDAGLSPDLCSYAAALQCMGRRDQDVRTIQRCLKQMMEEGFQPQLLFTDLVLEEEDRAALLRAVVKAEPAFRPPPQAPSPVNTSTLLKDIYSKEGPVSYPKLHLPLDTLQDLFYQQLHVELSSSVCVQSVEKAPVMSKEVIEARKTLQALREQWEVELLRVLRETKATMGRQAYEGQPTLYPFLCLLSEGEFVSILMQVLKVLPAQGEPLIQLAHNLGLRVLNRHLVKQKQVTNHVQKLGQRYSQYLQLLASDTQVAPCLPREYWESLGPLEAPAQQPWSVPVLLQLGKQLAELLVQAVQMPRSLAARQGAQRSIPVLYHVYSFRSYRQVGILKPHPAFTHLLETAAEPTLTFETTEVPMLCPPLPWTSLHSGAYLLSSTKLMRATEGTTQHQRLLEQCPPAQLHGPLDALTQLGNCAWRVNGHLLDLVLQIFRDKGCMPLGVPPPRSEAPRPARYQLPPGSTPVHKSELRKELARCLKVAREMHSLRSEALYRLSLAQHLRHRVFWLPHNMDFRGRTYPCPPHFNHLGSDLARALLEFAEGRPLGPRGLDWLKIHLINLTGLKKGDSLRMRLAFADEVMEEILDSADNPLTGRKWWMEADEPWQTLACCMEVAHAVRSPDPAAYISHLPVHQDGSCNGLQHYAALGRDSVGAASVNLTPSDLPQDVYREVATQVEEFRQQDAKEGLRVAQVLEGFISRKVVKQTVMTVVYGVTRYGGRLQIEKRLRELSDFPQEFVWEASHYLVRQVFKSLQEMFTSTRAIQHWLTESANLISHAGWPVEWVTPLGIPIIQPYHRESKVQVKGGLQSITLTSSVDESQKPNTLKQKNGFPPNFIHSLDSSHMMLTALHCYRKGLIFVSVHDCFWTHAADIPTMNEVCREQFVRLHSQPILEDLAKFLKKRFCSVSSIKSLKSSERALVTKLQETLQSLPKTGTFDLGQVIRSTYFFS

Row | IC50 [1] [nM] | IC50 [2] [nM] | SMILES
1 | 100 to 1000 | 10 to 50 | C[C@@H](Oc1ccc2c(-c3ccccc3)cc(=O)oc2c1)C(=O)N(C)C [Compound 34, (2R)-N,N-dimethyl-2-(2-oxo-4-phenyl-chromen-7-yl)oxy-propanamide]
2 | 100 to 1000 | 50 to 500 | CCOC(=O)C(C)Oc1ccc2c(-c3ccccc3)cc(=O)oc2c1 (centres unmarked) [Compound 52, ethyl 2-(2-oxo-4-phenyl-chromen-7-yl)oxypropanoate]
3 | 20 to 100 | < 10 | CC(C)OC(=O)C(C)Oc1ccc2c(-c3ccccc3)cc(=O)oc2c1 (centres unmarked) [Compound 53, isopropyl 2-(2-oxo-4-phenyl-chromen-7-yl)oxypropanoate]
4 | 1000 to 10000 | 500 to 10000 | CCOC(=O)C(C)Oc1ccc2c(-c3ccc(OC)cc3)cc(=O)oc2c1 (centres unmarked) [Compound 65, ethyl 2-[4-(4-methoxyphenyl)-2-oxo-chromen-7-yl]oxypropanoate]
